Experimental data taken from ChEMBL document CHEMBL3525964 (Drug Metab Dispos, 2012).
Each block holds one molecule with its values, some of them ahead of it.

Columns and labels:
[1] = Drug level in feces of human treated with [14C}LY2452473 at 15 mg, po administered as single dose by LC-MS/MS method; assay type: ADME, organism-based; details: in vivo
Plasma [2] = test: Drug level in human plasma treated with [14C}LY2452473 at 15 mg, po after 8 hrs administered as single dose by HPLC analysis; assay type: ADME, organism-based; details: in vivo
[3] = Drug level in urine of human treated with [14C}LY2452473 at 15 mg, po administered as single dose by LC-MS/MS method; assay type: ADME, organism-based; details: in vivo
Plasma [4] = test: Drug level in human plasma treated with [14C}LY2452473 at 15 mg, po after 4 hrs administered as single dose by HPLC analysis relative to total radioactivity; assay type: ADME, organism-based; details: in vivo
Plasma [5] = test: Drug level in human plasma treated with [14C}LY2452473 at 15 mg, po after 1 hr administered as single dose by HPLC analysis; assay type: ADME, organism-based; details: in vivo
Plasma [6] = test: Drug level in human plasma treated with [14C}LY2452473 at 15 mg, po after 4 hrs administered as single dose by HPLC analysis; assay type: ADME, organism-based; details: in vivo
Plasma [7] = test: Drug level in human plasma treated with [14C}LY2452473 at 15 mg, po after 2 hrs administered as single dose by HPLC analysis; assay type: ADME, organism-based; details: in vivo
Plasma [8] = test: Drug level in plasma of human treated with [14C}LY2452473 at 15 mg, po administered as single dose by LC-MS/MS method; assay type: ADME, organism-based; details: in vivo
Plasma [9] = test: Drug level in human plasma treated with [14C}LY2452473 at 15 mg, po after 24 hrs administered as single dose by HPLC analysis; assay type: ADME, organism-based; details: in vivo
Plasma [10] = test: Drug level in human plasma treated with [14C}LY2452473 at 15 mg, po after 48 hrs administered as single dose by HPLC analysis; assay type: ADME, organism-based; details: in vivo
Plasma [11] = test: Drug metabolism in human plasma assessed as [(1R)-2-hydroxy-1-methyl-ethyl]N-[(2S)-7-cyano-4-(2-pyridylmethyl)-2,3-dihydro-1H-cyclopenta[b]indol-2-yl]carbamate formation at 15 mg, po administered as single dose by LC-MS/MS method; assay type: ADME, organism-based; details: in vivo
Homo sapiens [12] = test: AUC (0 to time) in human assessed as total radioactivity at 15 mg, po administered as single dose by liquid scintillation counting method; assay type: ADME, organism-based, Plasma; details: in vivo
[13] = Drug metabolism in human feces assessed as isopropyl N-[(2S,3S)-7-cyano-3-hydroxy-4-(2-pyridylmethyl)-2,3-dihydro-1H-cyclopenta[b]indol-2-yl]carbamate formation at 15 mg, po administered as single dose by LC-MS/MS method; assay type: ADME, organism-based; details: in vivo
Plasma [14] = test: Drug level in human plasma at 15 mg, po after 48 hrs administered as single dose by HPLC analysis; assay type: ADME, organism-based; details: in vivo, pooled result: one value given for 5 cell lines, strains, targets or settings
[15] = Drug metabolism in human urine assessed as N-[(2S)-7-cyano-4-(2-pyridylmethyl)-2,3-dihydro-1H-cyclopenta[b]indol-2-yl]acetamide formation at 15 mg, po administered as single dose by LC-MS/MS method; assay type: ADME, organism-based; details: in vivo
Homo sapiens [16] = test: Tmax in human assessed as total radioactivity at 15 mg, po administered as single dose by liquid scintillation counting method; assay type: ADME, organism-based; details: in vivo
[17] = Drug metabolism in human urine assessed as LY2452473 formation at 15 mg, po administered as single dose by LC-MS/MS method; assay type: ADME, organism-based; details: in vivo
[18] = Drug metabolism in human urine assessed as isopropyl(2S)-7-cyano-3a,8b-dihydroxy-4-(pyridin-2-ylmethyl)-1,2,3,3a,4,8b-hexahydrocyclopenta[b]indol-2-ylcarbamate formation at 15 mg, po administered as single dose by LC-MS/MS method; assay type: ADME, organism-based; details: in vivo
Homo sapiens [19] = test: Elimination half life in human assessed as total radioactivity at 15 mg, po administered as single dose by liquid scintillation counting method; assay type: ADME, organism-based; details: in vivo
Plasma [20] = test: Drug metabolism in human plasma assessed as isopropyl N-[(2S,3S)-7-cyano-3-hydroxy-4-(2-pyridylmethyl)-2,3-dihydro-1H-cyclopenta[b]indol-2-yl]carbamate formation at 15 mg, po administered as single dose by LC-MS/MS method; assay type: ADME, organism-based; details: in vivo
Plasma [21] = test: Drug metabolism in human plasma assessed as LY2452473 formation at 15 mg, po administered as single dose by LC-MS/MS method; assay type: ADME, organism-based; details: in vivo
Homo sapiens [22] = test: AUC (0 to infinity) in human assessed as total radioactivity at 15 mg, po administered as single dose by liquid scintillation counting method; assay type: ADME, organism-based, Plasma; set-up: dose 15 mg, route oral, time infinity; details: in vivo
[23] = Drug metabolism in human urine assessed as isopropyl N-[(2S,3S)-7-cyano-3-hydroxy-4-(2-pyridylmethyl)-2,3-dihydro-1H-cyclopenta[b]indol-2-yl]carbamate formation at 15 mg, po administered as single dose by LC-MS/MS method; assay type: ADME, organism-based; details: in vivo
Homo sapiens [24] = test: Drug recovery in human at 15 mg, po administered as single dose after 0 to 312 hrs by liquid scintillation counting method; assay type: ADME, organism-based; details: in vivo
[25] = Drug metabolism in human feces assessed as [(1R)-2-hydroxy-1-methyl-ethyl]N-[(2S)-7-cyano-4-(2-pyridylmethyl)-2,3-dihydro-1H-cyclopenta[b]indol-2-yl]carbamate formation at 15 mg, po administered as single dose by LC-MS/MS method; assay type: ADME, organism-based; details: in vivo
[26] = Drug metabolism in human feces assessed as isopropyl(2S)-7-cyano-3a,8b-dihydroxy-4-(pyridin-2-ylmethyl)-1,2,3,3a,4,8b-hexahydrocyclopenta[b]indol-2-ylcarbamate formation at 15 mg, po administered as single dose by LC-MS/MS method; assay type: ADME, organism-based; details: in vivo
Plasma [27] = test: Drug metabolism in human plasma assessed as (2S)-2-amino-4-(2-pyridylmethyl)-2,3-dihydro-1H-cyclopenta[b]indole-7-carbonitrile formation at 15 mg, po administered as single dose by LC-MS/MS method; assay type: ADME, organism-based; details: in vivo
[28] = Drug metabolism in human feces assessed as N-[(2S)-7-cyano-4-(2-pyridylmethyl)-2,3-dihydro-1H-cyclopenta[b]indol-2-yl]acetamide formation at 15 mg, po administered as single dose by LC-MS/MS method; assay type: ADME, organism-based; details: in vivo
[29] = Drug recovery in human urine at 15 mg, po administered as single dose after 0 to 312 hrs by liquid scintillation counting method; assay type: ADME, organism-based; details: in vivo
[30] = Drug metabolism in human urine assessed as (2S)-2-amino-4-(2-pyridylmethyl)-2,3-dihydro-1H-cyclopenta[b]indole-7-carbonitrile formation at 15 mg, po administered as single dose by LC-MS/MS method; assay type: ADME, organism-based; details: in vivo
[31] = Drug metabolism in human feces assessed as (2S)-2-amino-4-(2-pyridylmethyl)-2,3-dihydro-1H-cyclopenta[b]indole-7-carbonitrile formation at 15 mg, po administered as single dose by LC-MS/MS method; assay type: ADME, organism-based; details: in vivo
Plasma [32] = test: Drug metabolism in human plasma assessed as isopropyl(2S)-7-cyano-3a,8b-dihydroxy-4-(pyridin-2-ylmethyl)-1,2,3,3a,4,8b-hexahydrocyclopenta[b]indol-2-ylcarbamate formation at 15 mg, po administered as single dose by LC-MS/MS method; assay type: ADME, organism-based; details: in vivo
Plasma [33] = test: Drug level in human plasma at 15 mg, po after 24 hrs administered as single dose by HPLC analysis; assay type: ADME, organism-based; details: in vivo
[34] = Drug metabolism in human feces assessed as LY2452473 formation at 15 mg, po administered as single dose by LC-MS/MS method; assay type: ADME, organism-based; details: in vivo
[35] = Drug metabolism in human urine assessed as [(1R)-2-hydroxy-1-methyl-ethyl]N-[(2S)-7-cyano-4-(2-pyridylmethyl)-2,3-dihydro-1H-cyclopenta[b]indol-2-yl]carbamate formation at 15 mg, po administered as single dose by LC-MS/MS method; assay type: ADME, organism-based; details: in vivo
Plasma [36] = test: Drug metabolism in human plasma assessed as N-[(2S)-7-cyano-4-(2-pyridylmethyl)-2,3-dihydro-1H-cyclopenta[b]indol-2-yl]acetamide formation at 15 mg, po administered as single dose by LC-MS/MS method; assay type: ADME, organism-based; details: in vivo
[37] = Drug recovery in human feces at 15 mg, po administered as single dose after 0 to 312 hrs by liquid scintillation counting method; assay type: ADME, organism-based; details: in vivo
Homo sapiens [38] = test: Tlast in human assessed as total radioactivity at 15 mg, po administered as single dose by liquid scintillation counting method; assay type: ADME, organism-based; details: in vivo
[39] = Drug excretion in urine of human treated with [14C}LY2452473 at 15 mg, po administered as single dose by HPLC analysis; assay type: ADME, organism-based; details: read-out: Drug excretion
[40] = Total drug excretion in human treated with [14C}LY2452473 at 15 mg, po administered as single dose by HPLC analysis; assay type: ADME, organism-based; details: in vivo, read-out: Drug excretion

Compound: CC(=O)N[C@H]1Cc2c(n(Cc3ccccn3)c3ccc(C#N)cc23)C1
- Drug metabolism [1]: metabolite_detected
- Drug uptake (Plasma [2]): 10.48%
- Drug metabolism [3]: metabolite_detected
- Drug uptake (Plasma [4]): 20.6%
- Drug uptake (Plasma [5]): 0%
- Drug uptake (Plasma [6]): 1.74%
- Drug uptake (Plasma [7]): 0%
- Drug metabolism (Plasma [8]): metabolite_detected
- Drug uptake (Plasma [9]): 28.48%
- Drug uptake (Plasma [10]): 38.68%

- Drug metabolism [1]: metabolite_detected
- Drug metabolism [3]: metabolite_detected
- Drug metabolism (Plasma [8]): metabolite_detected
Compound: CC(C)OC(=O)N[C@H]1CC2(O)c3cc(C#N)ccc3N(Cc3ccccn3)C2(O)C1 (some centres not stated)

Compound: CC(C)OC(=O)N[C@H]1Cc2c(n(Cc3ccccn3)c3ccc([14C]#N)cc23)C1
- Drug metabolism (Plasma [11]): metabolite_detected
- AUCt (Homo sapiens [12]): 7210 ng·h/mL
- Drug metabolism [13]: metabolite_detected
- Drug uptake (Plasma [14]): 96.4%
- Drug metabolism [15]: metabolite_detected
- Tmax (Homo sapiens [16]): 3 h
- Drug metabolism [17]: metabolite_detected
- Drug metabolism [18]: metabolite_detected
- beta t1/2 (Homo sapiens [19]): 51 h
- Drug metabolism (Plasma [20]): metabolite_detected
- Drug metabolism (Plasma [21]): metabolite_detected
- AUC (Homo sapiens [22]): 7750 ng·h/mL
- Drug metabolism [23]: metabolite_detected
- Drug recovery (Homo sapiens [24]): 94.5%
- Drug metabolism [25]: metabolite_detected
- Drug metabolism [26]: metabolite_detected
- Drug metabolism (Plasma [27]): metabolite_detected
- Drug metabolism [28]: metabolite_detected
- Drug recovery [29]: 47.9%
- Drug metabolism [30]: metabolite_detected
- Drug metabolism [31]: metabolite_detected
- Drug metabolism (Plasma [32]): metabolite_detected
- Drug uptake (Plasma [33]): 94.41%
- Drug metabolism [34]: metabolite_detected
- Drug metabolism [35]: metabolite_detected
- Drug metabolism (Plasma [36]): metabolite_detected
- Drug recovery [37]: 46.6%
- Tlast (Homo sapiens [38]): 204 h

- Drug metabolism [1]: metabolite_detected
- Drug uptake (Plasma [2]): 36.62%
- Drug metabolism [3]: metabolite_detected
- Drug uptake (Plasma [4]): 34.7%
- Drug uptake (Plasma [5]): 21.9%
- Drug uptake (Plasma [6]): 24.24%
- Drug uptake (Plasma [7]): 22.58%
- Drug metabolism (Plasma [8]): metabolite_detected
- Drug uptake (Plasma [9]): 37.11%
- Drug uptake (Plasma [10]): 30.05%
Compound: CC(C)OC(=O)N[C@H]1Cc2c(n(Cc3ccccn3)c3ccc(C#N)cc23)[C@H]1O

Compound: C[C@H](CO)OC(=O)N[C@H]1Cc2c(n(Cc3ccccn3)c3ccc(C#N)cc23)C1
- Drug metabolism [1]: metabolite_detected
- Drug uptake (Plasma [2]): 6.94%
- Drug metabolism [3]: metabolite_detected
- Drug uptake (Plasma [4]): 2.3%
- Drug uptake (Plasma [5]): 0%
- Drug uptake (Plasma [6]): 2.2%
- Drug uptake (Plasma [7]): 0.89%
- Drug metabolism (Plasma [8]): metabolite_detected
- Drug uptake (Plasma [9]): 0%
- Drug uptake (Plasma [10]): 0%

Compound: C[C@@H](CO)OC(=O)N[C@H]1Cc2c(n(Cc3ccccn3)c3ccc(C#N)cc23)C1
- Drug uptake (Plasma [2]): 0%
- Drug uptake (Plasma [5]): 0%
- Drug uptake (Plasma [6]): 0.97%
- Drug uptake (Plasma [7]): 0%
- Drug uptake (Plasma [9]): 0%
- Drug uptake (Plasma [10]): 0%

Compound: N#Cc1ccc2c(c1)c1c(n2Cc2ccccn2)C[C@@H](N)C1
- dose excreted [39]: 3.39%
- Drug metabolism [1]: metabolite_detected
- Drug metabolism [3]: metabolite_detected
- dose excreted [40]: 3.39%
- Drug metabolism (Plasma [8]): metabolite_detected
